Reference: EPA's CvTdb concentration-time database

What was measured:
Mouse [1] = experiment: concentration in plasma after dosing; conditions: 10 min; dosed: 2-Hydroxy-4-methoxybenzophenone; 250 mg/kg; oral; Female; B6C3F1
Rat [2] = experiment: concentration in plasma after dosing; conditions: 0.25 h; dosed: 2-Hydroxy-4-methoxybenzophenone; 500 mg/kg; oral; Male; F344
Rat [3] = experiment: concentration in plasma after dosing; conditions: dosed: 2-Hydroxy-4-methoxybenzophenone, 100 mg/kg, oral, Male, F344
Rat [4] = experiment: concentration in plasma after dosing; conditions: dosed: 2-Hydroxy-4-methoxybenzophenone, 250 mg/kg, oral, Male, F344
Rat [5] = experiment: concentration in plasma after dosing; conditions: dosed: 2-Hydroxy-4-methoxybenzophenone, 250 mg/kg, oral, Female, F344
Rat [6] = experiment: concentration in plasma after dosing; conditions: 6 h; dosed: 2-Hydroxy-4-methoxybenzophenone; 500 mg/kg; oral; Male; F344
Rat [7] = experiment: concentration in plasma after dosing; conditions: dosed: 2-Hydroxy-4-methoxybenzophenone, 100 mg/kg, oral, Female, F344
Mouse [8] = experiment: concentration in plasma after dosing; conditions: 10 min; dosed: 2-Hydroxy-4-methoxybenzophenone; 500 mg/kg; oral; Female; B6C3F1
Rat [9] = experiment: concentration in plasma after dosing; conditions: dosed: 2-Hydroxy-4-methoxybenzophenone, 8 mg/kg, iv, Female, F344
Rat [10] = experiment: concentration in plasma after dosing; conditions: dosed: 2-Hydroxy-4-methoxybenzophenone, 250 mg/kg, oral, Male, F344; remark: listed apart in the source
Rat [11] = experiment: concentration in plasma after dosing; conditions: dosed: 2-Hydroxy-4-methoxybenzophenone, 100 mg/kg, oral, Male, F344; remark: listed apart in the source
Rat [12] = experiment: concentration in plasma after dosing; conditions: dosed: 2-Hydroxy-4-methoxybenzophenone, 250 mg/kg, oral, Female, F344; remark: listed apart in the source
Mouse [13] = experiment: concentration in plasma after dosing; conditions: 2 h; dosed: 2-Hydroxy-4-methoxybenzophenone; 500 mg/kg; oral; Male; B6C3F1
Mouse [14] = experiment: concentration in plasma after dosing; conditions: 0.25 h; dosed: 2-Hydroxy-4-methoxybenzophenone; 500 mg/kg; oral; Male; B6C3F1
Rat [15] = experiment: concentration in plasma after dosing; conditions: 5 min; dosed: Nitrite; 20 mg/kg; iv; Male; F344
Rat [16] = experiment: concentration in plasma after dosing; conditions: 5 min; dosed: Nitrite; 40 mg/kg; oral; Female; F344
Rat [17] = experiment: concentration in plasma after dosing; conditions: dosed: Nitrite, 20 mg/kg, iv, Male, F344
Rat [18] = experiment: concentration in plasma after dosing; conditions: 5 min; dosed: Nitrite; 40 mg/kg; oral; Female; F344; remark: listed apart in the source
Rat [19] = experiment: concentration in liver after dosing; conditions: 3 h; dosed: Perfluorooctanoic acid; 12 mg/kg; oral; Male; Harlan Sprague Dawley
Rat [20] = experiment: concentration in brain after dosing; conditions: 192 h; dosed: Perfluorooctanoic acid; 12 mg/kg; oral; Male; Harlan Sprague Dawley
Rat [21] = experiment: concentration in liver after dosing; conditions: 192 h; dosed: Perfluorooctanoic acid; 12 mg/kg; oral; Male; Harlan Sprague Dawley
Rat [22] = experiment: concentration in plasma after dosing; conditions: 0.25 h; dosed: 678-39-7; 12 mg/kg; iv; Male; F344
Rat [23] = experiment: concentration in kidney after dosing; conditions: 3 h; dosed: Perfluorooctanoic acid; 80 mg/kg; oral; Female; Harlan Sprague Dawley
Rat [24] = experiment: concentration in kidney after dosing; conditions: 3 h; dosed: Perfluorooctanoic acid; 12 mg/kg; oral; Male; Harlan Sprague Dawley
Rat [25] = experiment: concentration in kidney after dosing; conditions: 24 h; dosed: Perfluorooctanoic acid; 80 mg/kg; oral; Female; Harlan Sprague Dawley
Rat [26] = experiment: concentration in plasma after dosing; conditions: dosed: 678-39-7, 12 mg/kg, iv, Male, F344
Rat [27] = experiment: concentration in kidney after dosing; conditions: 192 h; dosed: Perfluorooctanoic acid; 12 mg/kg; oral; Male; Harlan Sprague Dawley
Rat [28] = experiment: concentration in plasma after dosing; conditions: dosed: 678-39-7, 12 mg/kg, iv, Male, F344; remark: listed apart in the source
Rat [29] = experiment: concentration in kidney after dosing; conditions: 12 h; dosed: Perfluorooctanoic acid; 12 mg/kg; oral; Male; Harlan Sprague Dawley
Rat [30] = experiment: concentration in brain after dosing; conditions: 1 h; dosed: Potassium Perfluorobutane Sulfonate; 20 mg/kg; oral; Male; Harlan Sprague Dawley
Rat [31] = experiment: concentration in brain after dosing; conditions: 3 h; dosed: Potassium Perfluorobutane Sulfonate; 20 mg/kg; oral; Male; Harlan Sprague Dawley
Rat [32] = experiment: concentration in brain after dosing; conditions: 0.5 h; dosed: Potassium Perfluorobutane Sulfonate; 20 mg/kg; oral; Female; Harlan Sprague Dawley
Rat [33] = experiment: concentration in kidney after dosing; conditions: 12 h; dosed: Potassium Perfluorobutane Sulfonate; 20 mg/kg; oral; Male; Harlan Sprague Dawley
Rat [34] = experiment: concentration in plasma after dosing; conditions: dosed: Potassium Perfluorobutane Sulfonate, 4 mg/kg, iv, Male, F344
Rat [35] = experiment: concentration in plasma after dosing; conditions: dosed: Potassium Perfluorobutane Sulfonate, 4 mg/kg, iv, Male, F344; remark: listed apart in the source
rat [36] = experiment: concentration in serum after dosing; conditions: dosed: benzo[a]pyrene, male, Wistar

COc1ccc(C(=O)c2ccccc2)c(O)c1 [2-Hydroxy-4-methoxybenzophenone]
Conditions	concentration in plasma [ng/mL]
Mouse [1]	625
Mouse [8]	535
Mouse [13]	95.6
Mouse [14]	468
Rat [2]	902
Rat [6]	189

concentration in plasma [ng/mL]
Conditions	Rat [3]	Rat [4]	Rat [5]	Rat [7]	Rat [9]	Rat [10]	Rat [11]	Rat [12]
0.25 h	88.9	55.5	–	84.6	1800	–	218	–
3 h	–	–	95.6	–	–	71.3	6.64	81.6
4 h	26.1	84	–	16.2	38.7	–	28.5	–
10 min	–	–	26.9	–	–	35.9	106	13

O=N[O-] [Nitrite]
Conditions	concentration in plasma [ng/mL]
Rat [15]	8200
Rat [16]	9500
Rat [18]	8500

Rat [17]
Conditions	concentration in plasma [ng/mL]
1 h	3100
5 min	12600

O=C(O)C(F)(F)C(F)(F)C(F)(F)C(F)(F)C(F)(F)C(F)(F)C(F)(F)F [Perfluorooctanoic acid]
Conditions	concentration in brain [ng/g]	concentration in kidney [ng/g]	concentration in liver [ng/g]	concentration in plasma [ng/mL]
Rat [19]	–	–	50700	–
Rat [20]	543	–	–	–
Rat [21]	–	–	51800	–
Rat [22]	–	–	–	176
Rat [23]	–	49700	–	–
Rat [24]	–	36800	–	–
Rat [25]	–	12300	–	–
Rat [27]	–	21000	–	–
Rat [29]	–	27000	–	–

concentration in plasma [ng/mL]
Conditions	0.25 h	1 h	6 h	24 h
Rat [26]	102	–	–	607
Rat [28]	–	342	463	–

O=S(=O)([O-])C(F)(F)C(F)(F)C(F)(F)C(F)(F)F.[K+] [Potassium Perfluorobutane Sulfonate]
Conditions	concentration in brain [ng/g]	concentration in kidney [ng/g]
Rat [30]	1210	–
Rat [31]	754	–
Rat [32]	511	–
Rat [33]	–	3610

concentration in plasma [ng/mL]
Conditions	Rat [34]	Rat [35]
3 h	429	305
5 min	27500	26400

c1ccc2c(c1)cc1ccc3cccc4ccc2c1c34 [benzo[a]pyrene]
rat [36]
Conditions	concentration in serum [ng/mL]
0.3352 h, 2 mg/kg, iv	2230
0.4717 h, 20 mg/kg, oral	116
0.752 h, 2 mg/kg, iv	1020
1.006 h, 2 mg/kg, iv	635
1.061 h, 20 mg/kg, oral	486
1.985 h, 20 mg/kg, oral	989
2.002 h, 2 mg/kg, iv	85.5
3.99 h, 20 mg/kg, oral	936
4.005 h, 2 mg/kg, iv	4.48
5.975 h, 20 mg/kg, oral	261
5.998 h, 2 mg/kg, iv	2.43
7.98 h, 20 mg/kg, oral	86
8 h, 2 mg/kg, iv	2.04
9.966 h, 20 mg/kg, oral	16.8
24.02 h, 20 mg/kg, oral	1.38
